# From patent publication US20250163057A1, “DCN-1 MODULATING COMPOUNDS AND METHODS OF USE THEREOF” (Cellarity, Inc., priority 2023, published 2025)
# Read-outs that look alike come from different tables or passages of the source.
# Key:
# [1] = target: DCN1 (DCUND1) protein PONY domain (Homo sapiens (Human), UniProt Q96GG9); assay: TR-FRET assay, DCN1 binding with FAM-labeled probe
# Outline: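 Tb-DCN1 PONY domain (E. coli, biotin/streptavidin-Tb); FAM-labelled non-covalent inhibitor probe; TritonX buffer, 200 mM NaCl; 5 nM DCN1 + 20 nM probe or 0.31 nM DCN1 + 900 nM total probe; 0.1% DMSO; TR-FRET read 1, 5, 24 hrs.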
# [2] = target: DCN1 protein (Homo sapiens (Human), UniProt Q96GG9); assay: Intact Protein MS Analysis with the RapidFire-TOF System (covalent adduct formation); type: binding; conditions: MS Emax; 400 nM DCN1, 3 hours at room temperature
# Method: An MS assay was performed to evaluate the ability of the compounds to covalently modify DCN-1.
# DCN1 protein, His-TEV-DCN1, were expressed in E. Coli. The His-tagged protein was first purified with an Ni-NTA column. The His-tag was cleaved using His-tag TEV protease and the His-tags were removed using a second Ni-NTA column. Protein purity was verified with SDS-PAGE and intact MS. DCN1 was dissolved in a buffer containing 25 mM Tris-HCl, 200 mM NaCl, and 1 mM DTT at 400 nM. 11 concentrations of compounds were added to the DCN1 solution and incubated at room temperature for 3 hours, unless otherwise specified. The reaction plates were quenched by adding 0.2% formic acid. […] The cartridge was re-equilibrated with loading buffer for 1 second before collection of the next sample. The Q-TOF was operated in TOF-only positive ionization mode set to the following parameters: Gas Temp=350 C, Drying Gas=7 l/min, Nebulizer=50 psi, Sheath Gas Temp=400 C, Sheath Gas Flow=12 l/min, Vcap=4000 V, Nozzle Voltage=1000 V, Fragmentor=125 V, Skimmer=65 V and Oct 1 RF Vpp=750V. Raw MS data files were deconvoluted and analyzed using the Agilent MassHunter Bioconfirm software package to identify both parent protein and expected compound adduct mass signatures.
# [3] = 24 hr after treatment with compound, read-out: TR FRET IC50 24 hr
# [4] = TR FRET IC50 1 hr (nM), 1 hr after treatment with compound
# Sequence of DCN1 (DCUND1) protein PONY domain (Q96GG9 60-248): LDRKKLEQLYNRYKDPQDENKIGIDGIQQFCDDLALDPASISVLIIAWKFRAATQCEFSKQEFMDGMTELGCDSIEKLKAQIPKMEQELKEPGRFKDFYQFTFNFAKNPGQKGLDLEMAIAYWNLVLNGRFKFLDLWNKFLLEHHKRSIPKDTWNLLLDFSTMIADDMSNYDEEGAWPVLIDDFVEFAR
# Sequence of DCN1 protein (Q96GG9 whole entry): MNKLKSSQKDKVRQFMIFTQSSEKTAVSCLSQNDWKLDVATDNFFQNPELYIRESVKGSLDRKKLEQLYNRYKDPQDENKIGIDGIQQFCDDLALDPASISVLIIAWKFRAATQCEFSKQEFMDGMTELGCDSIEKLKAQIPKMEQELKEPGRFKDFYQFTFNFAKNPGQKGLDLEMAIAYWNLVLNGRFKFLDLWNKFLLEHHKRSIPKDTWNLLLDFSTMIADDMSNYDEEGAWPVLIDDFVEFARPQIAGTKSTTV
SMILES,"IC50 [1, 3]","IC50 [1, 4]",% Adduct Formation [2]
C=C(C)C(=O)N[C@@H](C)c1nn(-c2ccccc2)c2c1[C@H](c1ccc(F)cc1)[C@H](NC(=O)c1cccc(C(F)(F)F)c1)C(=O)N2CC (mixture of isomers) [Compound I-16],1000 to 3000 nM,200 to 1000 nM,+ (MS Emax % adduct formation greater than or equal to 0.0 and less than or equal to 30.0)
C/C=C/C(=O)N[C@@H](C)c1nn(-c2ccccc2)c2c1[C@H](c1ccc(F)cc1)[C@H](NC(=O)c1cccc(C(F)(F)F)c1)C(=O)N2CC (mixture of isomers) [Compound I-23],1000 to 3000 nM,1000 to 3000 nM,+ (MS Emax % adduct formation greater than or equal to 0.0 and less than or equal to 30.0)
"CCN1C(=O)[C@@H](NC(=O)c2cccc(C(F)(F)F)c2)[C@@H](c2ccc(F)cc2)c2c(C/C=C/C(=O)O)nn(-c3ccccc3)c21 (racemic) [Compound I-83, rac-(E)-4-((4R,5R)-7-ethyl-4-(4-fluorophenyl)-6-oxo-1-phenyl-5-(3-(trifluoromethyl)benzamido)-4,5,6,7-tetrahydro-1H-pyrazolo[3,4-b]pyridin-3-yl)but-2-enoic acid]",1000 to 3000 nM,1000 to 3000 nM,+ (MS Emax % adduct formation greater than or equal to 0.0 and less than or equal to 30.0)
CCN1C(=O)[C@@H](NC(=O)c2cccc(C(F)(F)F)c2)[C@@H](c2ccc(F)cc2)c2c(CNC(=O)/C(C#N)=C/C3CC3)nn(-c3ccccc3)c21 (racemic) [Compound I-217],–,–,+ (MS Emax % adduct formation greater than or equal to 0.0 and less than or equal to 30.0)
CCN1C(=O)[C@@H](NC(=O)c2cccc(C(F)(F)F)c2)[C@@H](c2ccc(F)cc2)c2c(CN(C)C(=O)/C=C/C(F)(F)F)nn(-c3ccccc3)c21 (racemic) [Compound I-219],–,–,+ (MS Emax % adduct formation greater than or equal to 0.0 and less than or equal to 30.0)
CCN1C(=O)[C@@H](NC(=O)c2cccc(C(F)(F)F)c2)[C@@H](c2ccc(F)cc2)c2c(CNC(=O)/C=C/CN(C)C)nn(-c3ccccc3)c21 (racemic) [Compound I-220],–,–,+ (MS Emax % adduct formation greater than or equal to 0.0 and less than or equal to 30.0)
CCN1C(=O)[C@@H](NC(=O)c2cccc(C(F)(F)F)c2)[C@@H](c2ccc(F)cc2)c2c(CNC(=O)/C=C/C(F)(F)F)nn(-c3ccccc3)c21 (racemic) [Compound I-221],–,–,+ (MS Emax % adduct formation greater than or equal to 0.0 and less than or equal to 30.0)
"CC#Cc1nn(-c2ccccc2)c2c1[C@H](c1ccc(F)cc1)[C@H](NC(=O)c1cccc(C(F)(F)F)c1)C(=O)N2CC (racemic) [Compound I-225, rac-N-((4R,5R)-7-ethyl-4-(4-fluorophenyl)-6-oxo-1-phenyl-3-(prop-1-yn-1-yl)-4,5,6,7-tetrahydro-1H-pyrazolo[3,4-b]pyridine-5-yl)-3-(trifluoromethyl)benzamide]",–,–,+ (MS Emax % adduct formation greater than or equal to 0.0 and less than or equal to 30.0)
CCN1C(=O)[C@@H](NC(=O)c2cccc(C(F)(F)F)c2)[C@@H](c2ccc(F)cc2)c2c(CN(C)C(=O)COc3c(F)c(F)cc(F)c3F)nn(-c3ccccc3)c21 (racemic) [Compound I-228],–,–,+ (MS Emax % adduct formation greater than or equal to 0.0 and less than or equal to 30.0)
CCN1C(=O)[C@@H](NC(=O)c2cccc(C(F)(F)F)c2)[C@@H](c2ccc(F)cc2)c2c(CNC(=O)CCl)nn(-c3ccccc3)c21 (racemic) [Compound I-229],–,–,+ (MS Emax % adduct formation greater than or equal to 0.0 and less than or equal to 30.0)
CCN1C(=O)[C@@H](NC(=O)c2cccc(C(F)(F)F)c2)[C@@H](c2ccc(F)cc2)c2c(CNC(=O)C3=CCCC3)nn(-c3ccccc3)c21 (racemic) [Compound I-232],–,–,+ (MS Emax % adduct formation greater than or equal to 0.0 and less than or equal to 30.0)
CCN1C(=O)[C@@H](NC(=O)c2cccc(C(F)(F)F)c2)[C@@H](c2ccc(F)cc2)c2c(CN(C)C(=O)C3=CCCC3)nn(-c3ccccc3)c21 (racemic) [Compound I-233],–,–,+ (MS Emax % adduct formation greater than or equal to 0.0 and less than or equal to 30.0)
C/C=C/C(=O)N(C)Cc1nn(-c2ccccc2)c2c1[C@H](c1ccc(F)cc1)[C@H](NC(=O)c1cccc(C(F)(F)F)c1)C(=O)N2CC (racemic) [Compound I-234],–,–,+ (MS Emax % adduct formation greater than or equal to 0.0 and less than or equal to 30.0)
"C#Cc1nn(-c2ccccc2)c2c1[C@H](c1ccc(F)cc1)[C@@H](NC(=O)c1cccc(C(F)(F)F)c1)C(=O)N2CC (racemic) [Compound I-235, N-((4S,5R)-7-ethyl-3-ethynyl-4-(4-fluorophenyl)-6-oxo-1-phenyl-4,5,6,7-tetrahydro-1H-pyrazolo[3,4-b]pyridine-5-yl)-3-(trifluoromethyl)benzamide]",–,–,+ (MS Emax % adduct formation greater than or equal to 0.0 and less than or equal to 30.0)
C#CCNC(=O)c1nn(-c2ccccc2)c2c1[C@H](c1ccc(F)cc1)[C@H](NC(=O)c1cccc(C(F)(F)F)c1)C(=O)N2CC (racemic) [Compound I-242],–,–,+ (MS Emax % adduct formation greater than or equal to 0.0 and less than or equal to 30.0)
"CCN1C(=O)[C@@H](NC(=O)c2cccc(C(F)(F)F)c2)[C@@H](c2ccc(F)cc2)c2c(C3CO3)nn(-c3ccccc3)c21 (relative stereo) [Compound I-196, N-((4RS,5RS)-7-ethyl-4-(4-fluorophenyl)-3-((S*)-oxiran-2-yl)-6-oxo-1-phenyl-4,5,6,7-tetrahydro-1H-pyrazolo[3,4-b]pyridine-5-yl)-3-(trifluoromethyl)benzamide]",–,–,+ (MS Emax % adduct formation greater than or equal to 0.0 and less than or equal to 30.0)
"CCN1C(=O)[C@H](NC(=O)c2cccc(C(F)(F)F)c2)[C@@H](c2ccc(F)cc2)c2c(C3CO3)nn(-c3ccccc3)c21 (relative stereo) [Compound I-207, N-((4RS,5SR)-7-ethyl-4-(4-fluorophenyl)-3-((S*)-oxiran-2-yl)-6-oxo-1-phenyl-4,5,6,7-tetrahydro-1H-pyrazolo[3,4-b]pyridine-5-yl)-3-(trifluoromethyl)benzamide]",–,–,+ (MS Emax % adduct formation greater than or equal to 0.0 and less than or equal to 30.0)
"CCN1C(=O)[C@@H](NC(=O)c2cccc(C(F)(F)F)c2)[C@@H](c2ccc(F)cc2)c2c(C(=O)N(C)[C@H](C#N)CCN(C)C)nn(-c3ccccc3)c21 (relative stereo) [Compound I-303, (4S,5S)—N-[(1S*)-1-cyano-3-(dimethylamino)propyl]-7-ethyl-4-(4-fluorophenyl)-N-methyl-6-oxo-1-phenyl-5-[3-(trifluoromethyl)benzamido]-4H,5H-pyrazolo[3,4-b]pyridine-3-carboxamide]",–,–,++ (MS Emax % adduct formation greater than 30.0 and less than or equal to 80.0)
CCN1C(=O)[C@@H](NC(=O)c2cccc(C(F)(F)F)c2)[C@@H](c2ccc(F)cc2)c2c(CNC(=O)C(F)Cl)nn(-c3ccccc3)c21 (stereo in doubt) [Compound I-205],–,–,+ (MS Emax % adduct formation greater than or equal to 0.0 and less than or equal to 30.0)
CCN1C(=O)[C@@H](NC(=O)c2cccc(C(F)(F)F)c2)[C@@H](c2ccc(F)cc2)c2c([C@@H](C)NC(=O)C(C)Cl)nn(-c3ccccc3)c21 (stereo in doubt) [Compound I-212],–,–,+ (MS Emax % adduct formation greater than or equal to 0.0 and less than or equal to 30.0)
CCN1C(=O)[C@@H](NC(=O)c2cccc(C(F)(F)F)c2)[C@@H](c2ccc(F)cc2)c2c([C@@H](C)NC(=O)C(F)Cl)nn(-c3ccccc3)c21 (stereo in doubt) [Compound I-239],–,–,+ (MS Emax % adduct formation greater than or equal to 0.0 and less than or equal to 30.0)
CCN1C(=O)[C@@H](NC(=O)c2cccc(C(F)(F)F)c2)[C@@H](c2ccc(F)cc2)c2c(CN(C)C(=O)C(F)Cl)nn(-c3ccccc3)c21 (some centres unmarked) [Compound I-145],–,–,+ (MS Emax % adduct formation greater than or equal to 0.0 and less than or equal to 30.0)
C=C(F)C(=O)NCc1nn(-c2ccccc2)c2c1[C@H](c1ccc(F)cc1)[C@H](NC(=O)c1cccc(C(F)(F)F)c1)C(=O)N2CC [Compound I-240],–,–,+ (MS Emax % adduct formation greater than or equal to 0.0 and less than or equal to 30.0)
